The term inhibition denotes the drop in the measured response relative to a control, in per cent.

These results are taken from ChEMBL document CHEMBL3046105, “Synthesis and antihyperlipidemic efficiency of berberine-based HMG-CoA reductase inhibitor” (Med Chem Res, 2012).

The test system of data set [1] is Oryctolagus cuniculus. Description: Toxicity in high fat-high cholesterol fed New Zealand Oryctolagus cuniculus (rabbit) assessed as body weight at 15 mg/kg, po for 40 days. Type of data set: organism-based. The note with it: in vivo, 960 h. Set-up: dose 15 mg/kg, route oral.
Data set [2] deals with Oryctolagus cuniculus. Description: Antihyperlipidemic activity in high fat-high cholesterol fed New Zealand Oryctolagus cuniculus (rabbit) assessed as high-density lipoprotein-cholesterol level in blood at 15 mg/kg, po for 40 days (reference value: 0.67 +/- 0.22 mmol/l). Type of data set: functional.
Data set [3] has as its system Oryctolagus cuniculus. Description: Antihyperlipidemic activity in high fat-high cholesterol fed New Zealand Oryctolagus cuniculus (rabbit) assessed as triglyceride level in blood at 5 mg/kg, po for 40 days (reference value: 2.07 +/- 0.33 mmol/l). It counts as functional.
Data set [4] has as its system Oryctolagus cuniculus. Briefly: Antihyperlipidemic activity in high fat-high cholesterol fed New Zealand Oryctolagus cuniculus (rabbit) assessed as triglyceride level in blood at 10 mg/kg, po for 40 days (reference value: 2.07 +/- 0.33 mmol/l). It counts as functional.
Data set [5] has as its system Oryctolagus cuniculus. Description: Antihyperlipidemic activity in high fat-high cholesterol fed New Zealand Oryctolagus cuniculus (rabbit) assessed as high-density lipoprotein-cholesterol level in blood at 10 mg/kg, po for 40 days (reference value: 0.69 +/- 0.02 mmol/l). It counts as functional.
Data set [6] concerns Oryctolagus cuniculus. Briefly: Toxicity in hyperlipidemic New Zealand Oryctolagus cuniculus (rabbit) assessed as alanine aminotransferase level at 15 mg/kg/day, po for 2 months (reference value: 92.14 +/- 14.3 U/l). Set-up: route oral. The note with it: in vivo. Type of data set: organism-based.
The target in data set [7] is T1, 3-hydroxy-3-methylglutaryl-coenzyme A reductase (Mus musculus) (UniProt Q01237).
T1 sequence (whole entry): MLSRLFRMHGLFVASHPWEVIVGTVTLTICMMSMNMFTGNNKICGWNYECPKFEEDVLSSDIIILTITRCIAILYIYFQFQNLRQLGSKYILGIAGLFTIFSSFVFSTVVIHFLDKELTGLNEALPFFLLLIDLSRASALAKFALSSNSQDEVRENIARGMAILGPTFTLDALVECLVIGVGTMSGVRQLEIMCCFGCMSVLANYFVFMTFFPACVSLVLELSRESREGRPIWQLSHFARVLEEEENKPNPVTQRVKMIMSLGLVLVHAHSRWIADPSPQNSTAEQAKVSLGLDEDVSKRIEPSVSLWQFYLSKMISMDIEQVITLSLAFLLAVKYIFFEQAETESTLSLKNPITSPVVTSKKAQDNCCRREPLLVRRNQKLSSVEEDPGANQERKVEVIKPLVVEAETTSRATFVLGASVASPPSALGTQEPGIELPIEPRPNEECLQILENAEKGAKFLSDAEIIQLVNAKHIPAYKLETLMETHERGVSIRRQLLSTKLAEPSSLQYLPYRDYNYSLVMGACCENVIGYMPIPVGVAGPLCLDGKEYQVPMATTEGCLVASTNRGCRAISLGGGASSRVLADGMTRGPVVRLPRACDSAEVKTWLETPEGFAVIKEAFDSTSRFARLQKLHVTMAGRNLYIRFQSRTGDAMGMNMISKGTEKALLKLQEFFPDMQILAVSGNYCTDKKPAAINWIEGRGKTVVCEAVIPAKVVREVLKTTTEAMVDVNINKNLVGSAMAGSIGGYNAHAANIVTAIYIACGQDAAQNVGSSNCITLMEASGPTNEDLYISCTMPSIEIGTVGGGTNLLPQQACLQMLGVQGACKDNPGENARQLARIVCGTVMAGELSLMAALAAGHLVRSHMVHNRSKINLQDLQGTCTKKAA
Description: Inhibition of HMGR isolated from Mus musculus (mouse) liver assessed as change in NADPH at 8 umol/l by HPLC analysis.

The subject of data set [8] is Oryctolagus cuniculus. Briefly: Toxicity in hyperlipidemic New Zealand Oryctolagus cuniculus (rabbit) assessed as blood urea nitrogen level at 15 mg/kg/day, po for 2 months (reference value: 7.25 +/- 1.46 mmol/l). Type of data set: organism-based. Also on record: route oral. The note with it: in vivo.

As for `CCCCCCCCCCCCCCCCc1c2c(OC)c(OC)ccc2cc2[n+]1CCc1cc3c(cc1-2)OCO3.[Cl-]` [8-HEXADECYL-BERBERINE CHLORIDE], the Activity entry is “Non-toxic” in the data set on Oryctolagus cuniculus [1]; 750000 nmol/L with Oryctolagus cuniculus [2]; 1.95e+06 nmol/L in the data set with Oryctolagus cuniculus [3]; 1.89e+06 nmol/L in the data set on Oryctolagus cuniculus [4]; 720000 nmol/L in the data set on Oryctolagus cuniculus [5]; 64.63 U/L in the data set with Oryctolagus cuniculus [6]. For the same compound, the Activity in the data set with Oryctolagus cuniculus [8] worked out at 4.36 mmol/L. In addition, the inhibition in data set [7] was 42.7%.
